Where two headings read alike, the source gives them in different places.
Tests used:
[1] = test system: hypoglossal motoneurons (HGN); assay: Excitatory post-synaptic currents in HGNs evoked by photoexcitation of ChR2 fibers from LepR^b+ neurons; format: cell-based, mouse
DIO C57BL/6J mice [2] = test system: DIO C57BL/6J mice
[3] = test system: hypoglossal neurons (HGNs); assay: Excitatory post-synaptic currents (EPSCs) recorded in vitro from HGNs; format: cell-based, mouse; details: for spontaneous excitatory post-synaptic currents (EPSCs) in HGNs: FIG. 7, DAMGO then leptin added to DAMGO; for EPSC frequency in HGNs: FIG. 16, n=7, DAMGO focally applied, then 200 nM leptin co-infusion
[4] = test system: hypoglossal motoneurons (HGN); assay: HGN firing per fictive inspiratory burst in bursting slice preparation; format: cell-based, mouse; details: DAMGO 500 nM; then leptin 200 nM with DAMGO; prior to DAMGO 3-5
[5] = test system: LepR^b+ neurons in the dorsomedial hypothalamus (DMH); format: cell-based, mouse
DIO C57BL/6J mice [6] = assay: Sleep study (plethysmography) in diet-induced obese mice, mouse model of OSA; format: in vivo; details: IN leptin 0.4 mg/kg single dose
[7] = test system: STAT3 phosphorylation (pSTAT3) via LepR^b; assay: Leptin signaling by STAT3 phosphorylation (pSTAT3) immunofluorescent staining of brain sections; format: in vivo, mouse; details: DIO mice
lean C57BL/6J mice [8] = assay: Barometric plethysmography during subcutaneous leptin infusion in lean mice; format: in vivo, mouse; details: SC osmotic pump leptin 0.2 mg/kg/hour
Text: Leptin increases minute ventilation, stimulates control of breathing and reverses UAO during sleep in leptin deficient ob/ob mice as shown in Pho et al., Journal of Applied Physiology 120, 78-86 (2016); Yao et al., Sleep 39, 1097-106 (2016); and O'Donnell et al., American Journal of Respiratory & Critical Care Medicine 159, 1477-1484 (1999), the disclosures of which are incorporated herein in their entirety. As such, it was proposed that high doses of leptin also stimulate ventilation and control of breathing in lean C57BL/6J mice. […] In six mice, a subcutaneous osmotic pump (DURECT, Cupertino, Calif., USA) filled with saline was implanted and baseline minute ventilation (VE) and the hypoxic ventilatory response (HVR) were measured by exposing mice to room air and 10% O2. […] VE normalized to body weight and the hypoxic ventilatory response (HVR) was calculated as the ratio of [VE (10% O2)−VE (20.9% O2) to the change in FiO2 (ΔFiO2=10.9% between normoxia and hypoxia) and reported as ΔVE/ΔFiO2. Subsequently, a subcutaneous osmotic pump for leptin infusion (0.2 mg/kg/hour) was implanted and the HVR was measured. […]

[9] = Leptin detection in brain tissue by ELISA after IN administration; format: in vivo, mouse; details: IN leptin 0.8 mg/kg in 1% BSA, 20 minutes, vs IN vehicle
Procedure: To determine the effect of intranasal (IN) leptin in the brain, leptin detection in brain tissue by ELISA was assessed after IN administration. In brief, male lean C57BL/6J mice (30 g of weight), were treated with IN leptin (24 μl) at 0.8 mg/kg in 1% BSA or 1% BSA and sacrificed 20 minutes later. Brains were extracted, then the olfactory bulbs, hypothalami and medullas were isolated, quick frozen in liquid nitrogen and stored at −80° C. For leptin level measurements, brain tissue was homogenized in 160 mM KCL, 25 mM HEPES, 0.2% Triton X-100 and protease inhibitors. Total protein concentrations were determined using a BioRad DC Protein kit and ELISA for leptin was performed with a Millipore kit.

lean C57BL/6J mice [10] = assay: Blood pressure by telemetry during SC leptin infusion; format: in vivo, mouse
Procedure: Blood pressure was measured by telemetry (DSI) implanted in the left femoral artery of freely behaving lean C57BL/6J mice at baseline and during leptin infusion (120 μg/day for 3 days via a SC pump) before and after carotid body (CB) denervation or sham surgery.

[11] = Plasma leptin levels after IN and IP leptin; format: in vivo, mouse; details: IN leptin, 1, 3 and 6 hours vs baseline, n=4
Procedure: FIG. 18 depicts a graph showing plasma leptin levels measured 1, 3, and 6 hours after IN and IP leptin administrations, as compared to baseline, n=4, for each treatment. *p<0.05.

[12] = SC leptin 120 μg/day for 3 days

In the case of `N#Cc1cc2c(cc1[N+](=O)[O-])=NC(=O)C(=O)N=2` [CNQX, 6-cyano-7-nitroquinoxaline-2,3-dione], the “photoexcitation-evoked excitatory post-synaptic currents in HGNs” value ([1]; 50 μM APV and 50 μM CNQX applied together) is reported as “blunted, but not blocked”.

With `N[C@H](CCCP(=O)(O)O)C(=O)O` [APV, (2R)-amino-5-phosphonovaleric acid] the “photoexcitation-evoked excitatory post-synaptic currents in HGNs” value [1] was “blunted, but not blocked”.

In the case of `CN1CC[C@]23c4c5ccc(O)c4O[C@H]2[C@@H](O)C=C[C@H]3[C@H]1C5` [morphine, reference compound], the “IFL prevalence (frequency of upper airway obstruction)” value (DIO C57BL/6J mice [2]; FIG. 3B experiment, DIO mice n=4, morphine 10 mg/kg) is reported as 39.6±9.3 % of all breaths, the “maximal inspiratory flow (Vimax) during IFL” value (DIO C57BL/6J mice [2]; FIG. 3C, DIO mice n=4, morphine 10 mg/kg) is reported as “decreasing” and the “minute ventilation during IFL (VE IFL)” value (DIO C57BL/6J mice [2]; FIG. 3D, DIO mice n=4, morphine 10 mg/kg) is reported as “decreasing”. The “respiratory rate during NFL breathing” value (DIO C57BL/6J mice [2]; FIG. 3E experiment, morphine 10 mg/kg) was “decreased”, the “non-flow limited breathing (NFL), respiratory depression” value (DIO C57BL/6J mice [2]; FIG. 3E, DIO mice n=4, morphine 10 mg/kg) was “suppressed” and the “respiratory depression (minute ventilation, VE)” value (DIO C57BL/6J mice [2]; IP morphine 80 mg/kg, DIO mice) was “induced respiratory depression”. The “number of apneic events during NREM sleep” value (DIO C57BL/6J mice [2]; NREM sleep, n=9, morphine 10 mg/kg, baseline 13.9±3.7) was 91.5±20.0, the “frequency of upper airway obstruction (IFL breaths), NREM sleep” value (DIO C57BL/6J mice [2]; morphine 10 mg/kg, baseline 11.9±5.5%) was 56.8±4.8 % of all breaths and the “minute ventilation during obstructed (IFL) breathing, NREM sleep” value (DIO C57BL/6J mice [2]; n=5, morphine 10 mg/kg) was “significantly decreased”. For the same molecule, the “maximal inspiratory flow (Vimax) during obstructed (IFL) breathing, NREM sleep” value (DIO C57BL/6J mice [2]; n=5, morphine 10 mg/kg, baseline 3.4±0.4) was 2.3 ± 0.5 mL/min, the “minute ventilation (VE), non-flow limited respiration, NREM sleep” value (DIO C57BL/6J mice [2]; n=9, morphine 10 mg/kg, baseline 1.2±0.1) was 0.7 ± 0.1 mL/min/g and the “inspiratory flow limitation (IFL)” value (DIO C57BL/6J mice [2]; sub-lethal IP morphine 80 mg/kg, DIO mice) was “induced severe inspiratory flow limitation”.

For `C[C@@H](NC(=O)[C@@H](N)Cc1ccc(O)cc1)C(=O)NCC(=O)N(C)[C@@H](Cc1ccccc1)C(=O)NCCO` [DAMGO, [D-Ala^2, N-MePhe^4, Gly-ol]-enkephalin, reference compound], the “spontaneous excitatory post-synaptic currents (EPSCs) in HGNs” value [3] was “rapidly depressed”, the “EPSC frequency in HGNs” value [3] was “significantly reduced” and the “action potentials in HGNs associated with each burst” value [4] was 2-3 action potentials.

In the case of leptin, the “effect on LepR^b+ neurons (firing)” value [5] is reported as “excited”, the “IFL prevalence (frequency of upper airway obstruction)” value (DIO C57BL/6J mice [2]; mouse, in vivo) is reported as “decreased” and the “apnea-hypopnea index (AHI)” value (DIO C57BL/6J mice [2]; mouse, in vivo) is reported as “dramatically reduced”. For the same molecule, the “frequency of upper airway obstruction (IFL breaths), NREM sleep” value (DIO C57BL/6J mice [2]; mouse, in vivo) was “decreased”, the “inspiratory flow limitation (IFL)” value (DIO C57BL/6J mice [2]; mouse, in vivo) was “markedly improved” and the “leptin effects on apneas, VE, IFL frequency, VImax and VE during IFL” value (DIO C57BL/6J mice [2]; mouse, in vivo) was “no longer significant”. For the same molecule, the “maximal inspiratory flow (Vimax) during IFL” value (DIO C57BL/6J mice [2]; mouse, in vivo) was “increases”, the “maximal inspiratory flow (Vimax) during obstructed (IFL) breathing, NREM sleep” value (DIO C57BL/6J mice [2]; mouse, in vivo) was “reversals of morphine-induced reductions” and the “minute ventilation (VE), non-flow limited respiration, NREM sleep” value (DIO C57BL/6J mice [2]; mouse, in vivo) was “increase”. The “minute ventilation during IFL (VE IFL)” value (DIO C57BL/6J mice [2]; mouse, in vivo) was “increases”, the “minute ventilation during obstructed (IFL) breathing, NREM sleep” value (DIO C57BL/6J mice [2]; mouse, in vivo) was “reversals of morphine-induced reductions” and the “non-flow limited breathing (NFL), respiratory depression” value (DIO C57BL/6J mice [2]; mouse, in vivo) was “prevented”. The “number of apneic events during NREM sleep” value (DIO C57BL/6J mice [2]; mouse, in vivo) was “decreased”, the “respiratory depression (minute ventilation, VE)” value (DIO C57BL/6J mice [2]; mouse, in vivo) was “prevented” and the respiratory rate (DIO C57BL/6J mice [2]; mouse, in vivo) was “increasing”. The “respiratory rate during NFL breathing” value (DIO C57BL/6J mice [2]; mouse, in vivo) was “did not change”, the “tidal volume (VT)” value (DIO C57BL/6J mice [2]; mouse, in vivo) was “increasing” and the “tidal volume during NFL breathing” value (DIO C57BL/6J mice [2]; mouse, in vivo) was 0.44±0.03. For the same molecule, the “ODI (number of oxyhemoglobin desaturations ≥4%/hour)” value (DIO C57BL/6J mice [6]) was “dramatic decrease”, the “maximal inspiratory flow (Vimax) during flow limited obstructed breathing” value (DIO C57BL/6J mice [6]) was “increased” and the “minute ventilation (VE) during flow limited obstructed breathing” value (DIO C57BL/6J mice [6]) was “increased”. For the same molecule, the non-flow limited breathing (DIO C57BL/6J mice [6]) was “increased”, the “signaling (STAT3 phosphorylation) in dorsal medulla, RVLM, CC, DMV, NA, XII” value ([7]; IN leptin single dose, one hour) was “increased” and the “number of pSTAT3-positive cells in the hypothalamus and medulla” value ([7]; IN leptin vs IP leptin and vehicle groups) was “highest”. For the same molecule, the “signaling (STAT3 phosphorylation) in dorsal medulla or RVLM” value ([7]; IP leptin single dose, one hour) was “no effect”, the “hypoxic ventilatory response (HVR, ΔVE/ΔFiO2)” value (lean C57BL/6J mice [8]; 10% O2 vs room air, saline pump 0.23) was 0.31 ml/minutes/grams/ΔFiO2 and the “minute ventilation (VE)” value (lean C57BL/6J mice [8]; wakefulness, saline pump 1.1) was 1.5 ml/minutes/grams. For the same molecule, the “spontaneous excitatory post-synaptic currents (EPSCs) in HGNs” value [3] was “successfully reversed”, the “EPSC frequency in HGNs” value [3] was “restored” and the “action potentials in HGNs associated with each burst” value [4] was 3-4 action potentials. The “leptin levels in the hypothalamus” value [9] was “strong increase”, the “leptin levels in the medulla” value [9] was “significantly increased” and the “leptin levels in the olfactory bulb” value [9] was “significantly increased”. The “increase in blood pressure at night” value (lean C57BL/6J mice [10]; [12]) was 16 mm Hg, the “increase in blood pressure during the day (9 am-9 pm, light phase)” value (lean C57BL/6J mice [10]; [12]) was 13 mm Hg and the “leptin-mediated increase in blood pressure after carotid body (CB) denervation” value (lean C57BL/6J mice [10]; SC leptin 120 μg/day, not abolished by sham surgery) was “completely abolished”. The plasma leptin levels [11] was “did not increase”.

Reference: patent US20220273768A1 (The George Washington University, priority 2019, published 2022)
